Read-outs that look alike come from different tables or passages of the source.
Key:
[1] = test system: Candida albicans ATCC 10231; assay: Antimicrobial agar cup-plate assay, C. albicans; assay type: cell-based; design: key to Inhibition Zone (mm) C. albicans: -: no activity; settings: for Inhibition Zone (mm) C. albicans: 0.1 mL of compound in DMF, overnight incubation, mean ± SD, at least three experiments
Protocol: (§1) The antimicrobial activity of all newly synthesized compounds was determined using the agar cup-plate method using the Hi-Media agar medium. Xanthotoxin, tobramycin, and amphotericin B were used as reference drugs. All newly synthesized compounds were tested against two strains of Gram-positive bacteria (Bacillus subtilis ATCC 14579 and Staphylococcus aureus ATCC 25923), Gram-negative bacteria (Escherichia coli ATCC 25922), and yeast (Candida albicans ATCC 10231).
(§2) The nutrient agar medium consists of 0.3% of beef extract, 0.5% of peptone, 0.1% dipotassium hydrogen phosphate, and 1.5% agar. Broth cultures of the organisms were prepared by incubating slant agar seeded with the organisms overnight.
(§3) The prepared broth culture (0.02 mL) was carefully added to sterile Petri dishes. Then, 10 mL of the liquefied nutrient agar medium was poured into each dish, mixed uniformly, and allowed to solidify. Using a sterilized cork borer, cups (9 mm) were scooped out of the agar media contained in the Petri dishes. Each test compound (50 mg) was dissolved in 1 mL DMF (50 mg mL^−1), which was used as a stock solution to carry out the twofold dilution technique. A fixed volume (0.1 mL) of the tested compounds dissolved in dimethylformamide (DMF) was added. Each plate contained a cup filled with DMF to disregard the effect of solvent. Additionally, two other cups were filled with tobramycin and xanthotoxin being used as reference drugs. The plates were incubated overnight to examine the antimicrobial activity. Zones of inhibition obtained by each test compound were measured in millimeters and the results are recorded in Table 2.
(§4) GraphPad Prism-version 5 (GraphPad Software, Inc., La Jolla, CA, USA) was used for statistical analysis.

[2] = test system: Escherichia coli ATCC 25922; assay: Antimicrobial agar cup-plate assay, E. coli; assay type: cell-based; design: key to Inhibition Zone (mm) E. coli: -: no activity; settings: for Inhibition Zone (mm) E. coli: 0.1 mL of compound in DMF, overnight incubation, mean ± SD, at least three experiments
Protocol: as §1, §2, §3, §4

[3] = test system: Bacillus subtilis ATCC 14579; assay: Photosensitizing assay (MIC before and after UV irradiation, agar cup-plate); assay type: cell-based; settings: for MIC: Bacillus subtilis, ATCC14579, light or radiation study; for photosensitizing activity against B. subtilis (in words): after 20 min of irradiation
Protocol: The photosensitizing activity was determined using the agar cup-plate method (described in Section 2.3) with Hi-Media agar medium. The antibacterial activity against Bacillus subtilis ATCC 14579 was measured before and after exposure to UV lamp (365 nm). The diameters of the inhibition zones were measured in mm and the results were compared with xanthotoxin. The tested organism used was Bacillus subtilis.
For the photosensitizing activity, xanthotoxin was used as a reference drug and DMF as a negative control. The minimum inhibitory concentrations (MIC) were determined using the agar cup-plate method. Each test compound (50 mg) was dissolved in 1 mL DMF (50 mg mL^−1), which was used as a stock solution to carry out the twofold dilution technique. The sample size for all the compounds was adjusted to 0.1 mL. The solution of the test compound (0.1 mL) was added to the cups. The plates were divided into test plates and duplicate plates. Before irradiation, the test plates were incubated in the dark at 37 °C for 3 h to permit the diffusion of the tested compounds through the agar layer. The duplicate plates were incubated overnight and used as a control for the determination of the antibacterial activity. The covers were removed from the test plates, and the dishes were exposed to UV lamp (365 nm) for 20 min. After irradiation, the plates were left overnight in the dark at 37 °C. MIC, the least concentration preventing visible bacterial growth, was determined in both the control and test, indicating the antibacterial and photosensitizing activity of the tested compounds, respectively.
To evaluate the significance of the difference in the results, each experiment was repeated at least three times. […] GraphPad Prism-version 5 (GraphPad Software, Inc., La Jolla, CA, USA) was used to perform statistical analysis of the results.

[4] = test system: Bacillus subtilis ATCC 14579; assay: Antimicrobial agar cup-plate assay, B. subtilis; assay type: cell-based; settings: 0.1 mL of compound in DMF, overnight incubation, mean ± SD, at least three experiments
Protocol: as §1, §2, §3, §4

[5] = test system: Staphylococcus aureus ATCC 25923; assay: Antimicrobial agar cup-plate assay, S. aureus; assay type: cell-based; design: key: -: no activity; settings: 0.1 mL of compound in DMF, overnight incubation, mean ± SD, at least three experiments
Protocol: as §1, §2, §3, §4

[6] = 20 min, B. subtilis, after irradiation with UV lamp (365 nm) for 20 min (photosensitizing activity), 100 μL per cup, read-out: MIC (mg mL^−1) Test
[7] = 20 min, B. subtilis, after irradiation with UV lamp (365 nm) for 20 min (photosensitizing activity), read-out: MIC (mM) Test
[8] = B. subtilis, without irradiation (antibacterial activity), 100 μL per cup, read-out: MIC (mg mL^−1) Control
[9] = B. subtilis, without irradiation (antibacterial activity), read-out: MIC (mM) Control

| melting point [°C] | Compound | Inhibition Zone (mm) C. albicans [1] | antibacterial activity against E. coli (in words) [2] | Inhibition Zone (mm) E. coli [2] | MIC [3, 6] [µg/mL] | MIC [3, 7] [mM] | MIC [3, 8] [µg/mL] | MIC [3, 9] [mM] | Inhibition Zone (mm) B. subtilis [4] [mm] | Inhibition Zone (mm) S. aureus [5] | photosensitizing activity against B. subtilis (in words) [3] | antifungal activity against C. albicans (in words) [1] | MIC (mM) Test ([3]; B. subtilis, after irradiation with UV lamp (365 nm) for 20 min (photosensitizing activity)) [mM] | MIC (mg mL^−1) Test ([3]; B. subtilis, after irradiation with UV lamp (365 nm) for 20 min (photosensitizing activity), 100 μL per cup) [µg/mL] | MIC (mM) Control ([3]; B. subtilis, without irradiation (antibacterial activity)) [mM] | MIC (mg mL^−1) Control ([3]; B. subtilis, without irradiation (antibacterial activity), 100 μL per cup) [µg/mL] |
| --- | --- | --- | --- | --- | --- | --- | --- | --- | --- | --- | --- | --- | --- | --- | --- | --- |
| 95 to 97 | CCc1cc2c(C)cc(=O)oc2cc1OC(C)C(C)=O (centres unmarked) [Compound 2a, 6-Ethyl-4-methyl-7-(3-oxobutan-2-yloxy)-2H-1-benzopyran-2-one] | 11 ± 0.8165 mm | inactive | - | 6250 | 22.8 | 6250 | 22.8 | 15 ± 1.414 | 14 ± 1.414 mm |  |  |  |  |  |  |
| 100 to 102 | CCc1cc2c(-c3ccccc3)cc(=O)oc2cc1OC(C)C(C)=O (centres unmarked) [Compound 2b, 6-Ethyl-7-(3-oxobutan-2-yloxy)-4-phenyl-2H-1-benzopyran-2-one] | 15 ± 1.414 mm | inactive | - | 6250 | 18.6 | 6250 | 18.6 | 14 ± 0.8165 | 22 ± 1.414 mm |  |  |  |  |  |  |
| 199 to 201 | CCc1cc2c(C)cc(=O)oc2c2c(C)c(C)oc12 [Compound 3a, 9-Ethyl-2,3,7-trimethyl-5H-furo[2,3-h]benzopyran-5-one] | 16 ± 0.8165 mm |  | 15 ± 1.414 mm | 780 | 3.04 | 780 | 3.04 | 20 ± 0.8165 | 30 ± 1.414 mm | without any photosensitizing activity |  |  |  |  |  |
| 90 to 92 | CCc1cc2c(-c3ccccc3)cc(=O)oc2c2c(C)c(C)oc12 [Compound 3b, 2,3-Dimethyl-9-ethyl-7-phenyl-5H-furo[2,3-h]benzopyran-5-one] | 15 ± 1.414 mm |  | 16 ± 1.414 mm | 3120 | 9.82 | 3120 | 9.82 | 10 ± 1.414 | 22 ± 0.8165 mm | without any photosensitizing activity |  |  |  |  |  |
| 160 to 162 | CCc1cc2c(C)cc(=O)oc2cc1OC1CCCCC1=O (centres unmarked) [Compound 4a, 6-Ethyl-4-methyl-7-(2-oxocyclohexyloxy)-2H-1-benzopyran-2-one] | 18 ± 1.414 mm | inactive | - | 780 | 2.6 | 3120 | 10.4 | 15 ± 0.8165 | 24 ± 1.414 mm |  |  |  |  |  |  |
| 150 to 152 | CCc1cc2c(-c3ccccc3)cc(=O)oc2cc1OC1CCCCC1=O (centres unmarked) [Compound 4b, 6-Ethyl-7-(2-oxocyclohexyloxy)-4-phenyl-2H-1-benzopyran-2-one] | 14 ± 1.414 mm | inactive | - | 3120 | 8.62 | 3120 | 8.62 | 17 ± 0.8165 | 29 ± 0.8165 mm |  |  |  |  |  |  |
| 108 to 110 | CCc1cc2c(-c3ccccc3)cc(=O)oc2c2c3c(oc12)CCCC3 [Compound 5b, 6-Ethyl-4-phenyl-8,9,10,11-tetrahydro-2H-benzofuro[2,3-h]benzopyran-2-one] | - |  | - | 780 | 2.26 | 3120 | 9.07 | 22 ± 1.414 | 26 ± 0.8165 mm |  | inactive |  |  |  |  |

Second part, the molecule before the results:

| Compound | melting point [°C] | Inhibition Zone (mm) C. albicans [1] | antibacterial activity against E. coli (in words) [2] | Inhibition Zone (mm) E. coli [2] | MIC [3, 6] [µg/mL] | MIC [3, 7] [mM] | MIC [3, 8] [µg/mL] | MIC [3, 9] [mM] | Inhibition Zone (mm) B. subtilis [4] [mm] | Inhibition Zone (mm) S. aureus [5] | photosensitizing activity against B. subtilis (in words) [3] | antifungal activity against C. albicans (in words) [1] | MIC (mM) Test ([3]; B. subtilis, after irradiation with UV lamp (365 nm) for 20 min (photosensitizing activity)) [mM] | MIC (mg mL^−1) Test ([3]; B. subtilis, after irradiation with UV lamp (365 nm) for 20 min (photosensitizing activity), 100 μL per cup) [µg/mL] | MIC (mM) Control ([3]; B. subtilis, without irradiation (antibacterial activity)) [mM] | MIC (mg mL^−1) Control ([3]; B. subtilis, without irradiation (antibacterial activity), 100 μL per cup) [µg/mL] |
| --- | --- | --- | --- | --- | --- | --- | --- | --- | --- | --- | --- | --- | --- | --- | --- | --- |
| C[C@@H]1[C@H](O)[C@@H](C)/C=C/C=C/C=C/C=C/C=C/C=C/C=C/[C@H](O[C@@H]2O[C@H](C)[C@@H](O)[C@H](N)[C@@H]2O)C[C@@H]2O[C@](O)(C[C@@H](O)C[C@@H](O)[C@H](O)CC[C@@H](O)C[C@@H](O)CC(=O)O[C@H]1C)C[C@H](O)[C@H]2C(=O)O [Amphotercin B, amphotericin B, reference compound] |  | 14 ± 1.414 mm |  |  |  |  |  |  |  |  |  |  |  |  |  |  |
| CCc1cc2c(C)cc(=O)oc2c2c3c(oc12)CCCC3 [Compound 5a, 6-Ethyl-4-methyl-8,9,10,11-tetrahydro-2H-benzofuro[2,3-h]benzopyran-2-one] |  | 18 ± 0.8165 mm |  | 16 ± 1.414 mm | 780 | 2.76 | 3120 | 11.1 | 22 ± 0.8165 | 30 ± 0.8165 mm |  |  |  |  |  |  |
| NC[C@H]1O[C@H](O[C@H]2[C@H](O)[C@@H](O[C@H]3O[C@H](CO)[C@@H](O)[C@H](N)[C@H]3O)[C@H](N)C[C@@H]2N)[C@H](N)C[C@@H]1O [Tobramycin, reference compound] |  |  |  | 20 ± 1.414 mm |  |  |  |  |  | 21 ± 0.8165 mm |  |  |  |  |  |  |
| COc1c2occc2cc2ccc(=O)oc12 [Xanthotoxin, reference compound] |  | 15 ± 0.8165 mm |  | 25 ± 0.8165 mm |  |  |  |  | 13 ± 0.8165 | - |  |  | 6.94 | 1500 | 57.82 | 12500 |
